Key:
Type in all cases: in vivo
[1] = tested on: blackgrass (Alopecurus myosuroides); assay: Test A postemergence, blackgrass; settings: Postemergence, 0 to 100 scale (0 no effect, 100 complete control); for Blackgrass plant response rating: 500 g ai/ha, visual injury vs untreated controls after approx. 10 days
Procedure, shortened: (§1)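 After sowing into a sand-amended loam, pots for the preemergence test were treated by spraying directly onto soil. In parallel, seedlings at the one- to two-leaf stage and 2 to 10 cm tall were treated postemergence with the identical surfactant-containing formulation.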

[2] = tested on: pigweed (Amaranthus retroflexus); assay: Test A preemergence, pigweed; settings: for Plant response rating, Pigweed: 0 to 100 scale (0 no effect, 100 complete control); for Pigweed plant response rating: 125 g ai/ha, visual injury on 0 to 100 scale (0 no effect, 100 complete control), approximately 10 days
Procedure, shortened: (§2)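 Preemergence: seeded pots of loam plus sand received a directed soil spray. Postemergence: seedlings at one to two leaves, 2 to 10 cm high, were oversprayed. Each compound was formulated in a non-phytotoxic solvent mix that included a surfactant.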

kochia (Bassia scoparia) [3] = assay: Test A preemergence, kochia; settings: Preemergence; for Plant response rating, Kochia: 0 to 100 scale (0 no effect, 100 complete control); for Kochia plant response rating: 125 g ai/ha, visual injury on 0 to 100 scale (0 no effect, 100 complete control), approximately 10 days
Procedure, shortened: as §1

[4] = tested on: barnyardgrass (Echinochloa crus-galli); assay: Test A preemergence, barnyardgrass; settings: Preemergence; for Plant response rating, Barnyardgrass: 0 to 100 scale (0 no effect, 100 complete control); for Barnyardgrass plant response rating: 125 g ai/ha, visual injury on 0 to 100 scale (0 no effect, 100 complete control), approximately 10 days
Procedure, shortened: as §1

[5] = tested on: ragweed (common ragweed, Ambrosia artemisiifolia); assay: Test A postemergence, ragweed; settings: Postemergence, 0 to 100 scale (0 no effect, 100 complete control); for Ragweed plant response rating: 500 g ai/ha, visual injury vs untreated controls after approx. 10 days
Procedure, shortened: as §1

[6] = tested on: ragweed (common ragweed, Ambrosia artemisiifolia); assay: Test A preemergence, ragweed; settings: Preemergence; for Plant response rating, Ragweed: 0 to 100 scale (0 no effect, 100 complete control); for Ragweed plant response rating: 125 g ai/ha, visual injury on 0 to 100 scale (0 no effect, 100 complete control), approximately 10 days
Procedure, shortened: as §1

corn (Zea mays) = assay: Test A postemergence, corn; settings: Postemergence, 0 to 100 scale (0 no effect, 100 complete control); for Corn plant response rating: 500 g ai/ha, visual injury vs untreated controls after approx. 10 days
Procedure, shortened: as §1

[7] = tested on: galium (catchweed bedstraw, Galium aparine); assay: Test A postemergence, galium; settings: Postemergence, 0 to 100 scale (0 no effect, 100 complete control); for Galium plant response rating: 500 g ai/ha, visual injury vs untreated controls after approx. 10 days
Procedure, shortened: as §2

[8] = tested on: pigweed (Amaranthus retroflexus); assay: Test A postemergence, pigweed; settings: Postemergence, 0 to 100 scale (0 no effect, 100 complete control); for Pigweed plant response rating: 500 g ai/ha, visual injury vs untreated controls after approx. 10 days
Procedure, shortened: as §1

[9] = tested on: Ryegrass, Italian (Italian ryegrass, Lolium multiflorum); assay: Test A postemergence, Ryegrass, Italian; settings: Postemergence, 0 to 100 scale (0 no effect, 100 complete control); for Ryegrass, Italian plant response rating: 500 g ai/ha, visual injury vs untreated controls after approx. 10 days
Procedure, shortened: as §1

[10] = tested on: Ryegrass, Italian (Italian ryegrass, Lolium multiflorum); assay: Test A preemergence, Ryegrass, Italian; settings: Preemergence; for Plant response rating, Ryegrass, Italian: 0 to 100 scale (0 no effect, 100 complete control); for Ryegrass, Italian plant response rating: 125 g ai/ha, visual injury on 0 to 100 scale (0 no effect, 100 complete control), approximately 10 days
Procedure, shortened: as §1

[11] = tested on: Foxtail, Giant (giant foxtail, Setaria faberi); assay: Test A preemergence, Foxtail, Giant; settings: Preemergence; for Plant response rating, Foxtail, Giant: 0 to 100 scale (0 no effect, 100 complete control); for Foxtail, Giant plant response rating: 125 g ai/ha, visual injury on 0 to 100 scale (0 no effect, 100 complete control), approximately 10 days
Procedure, shortened: as §1

kochia (Bassia scoparia) [12] = assay: Test A postemergence, kochia; settings: Postemergence, 0 to 100 scale (0 no effect, 100 complete control); for Kochia plant response rating: 500 g ai/ha, visual injury vs untreated controls after approx. 10 days
Procedure, shortened: as §1

[13] = tested on: wheat (Triticum aestivum); assay: Test A postemergence, wheat; settings: Postemergence, 0 to 100 scale (0 no effect, 100 complete control); for Wheat plant response rating: 500 g ai/ha, visual injury vs untreated controls after approx. 10 days
Procedure, shortened: as §2

[14] = tested on: Foxtail, Giant (giant foxtail, Setaria faberi); assay: Test A postemergence, Foxtail, Giant; settings: Postemergence, 0 to 100 scale (0 no effect, 100 complete control); for Foxtail, Giant plant response rating: 500 g ai/ha, visual injury vs untreated controls after approx. 10 days
Procedure, shortened: as §1

[15] = tested on: barnyardgrass (Echinochloa crus-galli); assay: Test A postemergence, barnyardgrass; settings: Postemergence, 0 to 100 scale (0 no effect, 100 complete control); for Barnyardgrass plant response rating: 500 g ai/ha, visual injury vs untreated controls after approx. 10 days
Procedure, shortened: as §2

[16] = 1000 g ai/ha, visual injury, approx. 10 days
[17] = 125 g ai/ha, visual injury approx. 10 days

| Structure (SMILES) | Plant response rating, Blackgrass [1, 17] | Blackgrass plant response rating [1] | Pigweed plant response rating [2] | Plant response rating, Pigweed ([2]; 500 g ai/ha) | Kochia plant response rating (kochia (Bassia scoparia) [3]) | Plant response rating, Kochia (kochia (Bassia scoparia) [3]; 500 g ai/ha) | Barnyardgrass plant response rating [4] | Plant response rating, Barnyardgrass ([4]; 500 g ai/ha) | Plant response rating, Ragweed [5, 17] | Ragweed plant response rating [5] | Ragweed plant response rating [6] | Plant response rating, Ragweed ([6]; 500 g ai/ha) | Plant response rating, Corn (corn (Zea mays); [17]) | Corn plant response rating (corn (Zea mays)) | Plant response rating, Galium [7, 17] | Galium plant response rating [7] | Plant response rating, Pigweed [8, 17] | Pigweed plant response rating [8] | Plant response rating, Ryegrass, Italian [9, 17] | Ryegrass, Italian plant response rating [9] | further results |
| --- | --- | --- | --- | --- | --- | --- | --- | --- | --- | --- | --- | --- | --- | --- | --- | --- | --- | --- | --- | --- | --- |
| COC(=O)C1CCN(C(=O)c2cc(NS(=O)(=O)C(F)(F)F)c(C)cc2C)CC1 [Compound 50] | – | – | – | – | – | – | – | – | – | – | – | – | – | – | – | – | – | – | – | – | Plant response rating, Blackgrass [1, 16]: 20; Plant response rating, Pigweed ([2]; 1000 g ai/ha): 100; Plant response rating, Kochia (kochia (Bassia scoparia) [3]; 1000 g ai/ha): 90; Plant response rating, Barnyardgrass ([4]; 1000 g ai/ha): 100; Plant response rating, Ragweed [5, 16]: 50; Plant response rating, Ragweed ([6]; 1000 g ai/ha): 80; Plant response rating, Corn (corn (Zea mays); [16]): 10; Plant response rating, Galium [7, 16]: 90; Plant response rating, Pigweed [8, 16]: 90; Plant response rating, Ryegrass, Italian [9, 16]: 90; Plant response rating, Ryegrass, Italian ([10]; 1000 g ai/ha): 70; Plant response rating, Foxtail, Giant ([11]; 1000 g ai/ha): 100; Plant response rating, Kochia (kochia (Bassia scoparia) [12]; [16]): 60; Plant response rating, Wheat [13, 16]: 50; Plant response rating, Foxtail, Giant [14, 16]: 90; Plant response rating, Barnyardgrass [15, 16]: 60 |
| CCn1nc(Cl)cc(-c2cc(NS(=O)(=O)C(F)(F)F)c(C)cc2C)c1=O [Compound 51] | 20 | 70 | 80 | 90 | 80 | 90 | 100 | 100 | 50 | 80 | 60 | 90 | 0 | 20 | 40 | 60 | 60 | 80 | 70 | 80 | Ryegrass, Italian plant response rating [10]: 90; Plant response rating, Ryegrass, Italian ([10]; 500 g ai/ha): 100; Foxtail, Giant plant response rating [11]: 100; Plant response rating, Foxtail, Giant ([11]; 500 g ai/ha): 100; Plant response rating, Kochia (kochia (Bassia scoparia) [12]; [17]): 10; Kochia plant response rating (kochia (Bassia scoparia) [12]): 60; Plant response rating, Wheat [13, 17]: 50; Wheat plant response rating [13]: 60; Plant response rating, Foxtail, Giant [14, 17]: 30; Foxtail, Giant plant response rating [14]: 80; Plant response rating, Barnyardgrass [15, 17]: 30; Barnyardgrass plant response rating [15]: 80 |
| CCn1nc(C)cc(-c2cc(N(S(=O)(=O)C(F)(F)F)S(=O)(=O)C(F)(F)F)c(C)cc2C)c1=O [Compound 52] | 0 | 80 | 50 | 90 | 70 | 90 | 100 | 100 | 30 | 60 | 10 | 60 | 0 | 0 | 60 | 80 | 30 | 50 | 20 | 40 | Ryegrass, Italian plant response rating [10]: 90; Plant response rating, Ryegrass, Italian ([10]; 500 g ai/ha): 90; Foxtail, Giant plant response rating [11]: 100; Plant response rating, Foxtail, Giant ([11]; 500 g ai/ha): 100; Plant response rating, Kochia (kochia (Bassia scoparia) [12]; [17]): 30; Kochia plant response rating (kochia (Bassia scoparia) [12]): 80; Plant response rating, Wheat [13, 17]: 60; Wheat plant response rating [13]: 70; Plant response rating, Foxtail, Giant [14, 17]: 0; Foxtail, Giant plant response rating [14]: 80; Plant response rating, Barnyardgrass [15, 17]: 0; Barnyardgrass plant response rating [15]: 80 |
| COC(=O)N(c1cc(-c2ccnn(C)c2=O)c(C)cc1C)S(=O)(=O)C(F)(F)F [Compound 53] | 0 | 0 | 0 | 0 | 0 | 0 | 0 | 0 | 20 | 20 | 0 | 40 | 0 | 0 | 50 | 80 | 0 | 0 | 0 | 0 | Ryegrass, Italian plant response rating [10]: 0; Plant response rating, Ryegrass, Italian ([10]; 500 g ai/ha): 0; Foxtail, Giant plant response rating [11]: 0; Plant response rating, Foxtail, Giant ([11]; 500 g ai/ha): 0; Plant response rating, Kochia (kochia (Bassia scoparia) [12]; [17]): 0; Kochia plant response rating (kochia (Bassia scoparia) [12]): 0; Plant response rating, Wheat [13, 17]: 0; Wheat plant response rating [13]: 0; Plant response rating, Foxtail, Giant [14, 17]: 0; Foxtail, Giant plant response rating [14]: 0; Plant response rating, Barnyardgrass [15, 17]: 0; Barnyardgrass plant response rating [15]: 0 |
| COc1cnn(-c2cc(NS(=O)(=O)C(F)(F)F)c(C)cc2C)c(=O)c1 [Compound 54] | 0 | 0 | 40 | 90 | 60 | 90 | 0 | 0 | 80 | 90 | 50 | 90 | 0 | 10 | 60 | 90 | 40 | 70 | 40 | 40 | Ryegrass, Italian plant response rating [10]: 0; Plant response rating, Ryegrass, Italian ([10]; 500 g ai/ha): 20; Foxtail, Giant plant response rating [11]: 0; Plant response rating, Foxtail, Giant ([11]; 500 g ai/ha): 10; Plant response rating, Kochia (kochia (Bassia scoparia) [12]; [17]): 60; Kochia plant response rating (kochia (Bassia scoparia) [12]): 80; Plant response rating, Wheat [13, 17]: 0; Wheat plant response rating [13]: 0; Plant response rating, Foxtail, Giant [14, 17]: 0; Foxtail, Giant plant response rating [14]: 0; Plant response rating, Barnyardgrass [15, 17]: 0; Barnyardgrass plant response rating [15]: 10 |

— patent US20230278972A1, “SUBSTITUTED HALOALKYL SULFONANILIDE HERBICIDES” (FMC Corporation, priority 2020, published 2023)
